Experiment [1] has as its target T1, human dopamine reuptake transporter (Homo sapiens, UniProt Q01959).
T1 construct: expressed in transfected cells; host or cells: CHO-K1 or HEK293
The experiment can be described thus: cell-based.

In experiment [2] the target is human serotonin reuptake transporter (Homo sapiens, UniProt P31645). The experiment is described as follows: cell-based.
[3] abbreviates: recombinant human dopamine transporter (DAT), read-out: Human IC50 (nM) hDAT.
Where [4] appears, read: recombinant human serotonin transporter (SERT), read-out: Human IC50 (nM) hSERT.
Setting [5] is: read-out: Human IC50 (nM) hSERT.
The mark [6] stands for this setting: Human IC50 (nM) hSERT, recombinant human serotonin transporter (SERT).

As a reminder, the IC50 is the concentration needed to halve the response being measured.

Structures are written as SMILES. “And” between values parts separate entries of the source, which are not always exact repeats. Equal entries are not always repeated. Where two headings read alike, the source gives them in different places. Some results are limits rather than exact numbers.

T1 sequence (Q01959 whole entry): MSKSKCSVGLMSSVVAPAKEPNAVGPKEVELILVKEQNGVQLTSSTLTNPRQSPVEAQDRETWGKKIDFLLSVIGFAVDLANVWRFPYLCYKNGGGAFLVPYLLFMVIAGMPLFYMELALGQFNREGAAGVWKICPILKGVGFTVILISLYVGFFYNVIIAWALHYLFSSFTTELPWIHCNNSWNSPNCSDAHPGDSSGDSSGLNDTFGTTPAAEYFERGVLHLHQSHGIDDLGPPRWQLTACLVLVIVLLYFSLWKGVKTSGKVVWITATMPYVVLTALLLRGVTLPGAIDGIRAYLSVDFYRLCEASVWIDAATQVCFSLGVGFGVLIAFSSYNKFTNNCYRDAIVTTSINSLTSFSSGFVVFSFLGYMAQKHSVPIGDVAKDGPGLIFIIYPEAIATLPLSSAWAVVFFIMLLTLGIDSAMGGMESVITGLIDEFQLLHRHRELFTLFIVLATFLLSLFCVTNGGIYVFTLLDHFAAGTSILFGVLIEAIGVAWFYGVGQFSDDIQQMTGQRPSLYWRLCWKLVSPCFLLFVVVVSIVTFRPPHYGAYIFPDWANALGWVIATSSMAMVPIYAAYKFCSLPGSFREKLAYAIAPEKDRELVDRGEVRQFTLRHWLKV
Chain of human serotonin reuptake transporter (P31645 whole entry): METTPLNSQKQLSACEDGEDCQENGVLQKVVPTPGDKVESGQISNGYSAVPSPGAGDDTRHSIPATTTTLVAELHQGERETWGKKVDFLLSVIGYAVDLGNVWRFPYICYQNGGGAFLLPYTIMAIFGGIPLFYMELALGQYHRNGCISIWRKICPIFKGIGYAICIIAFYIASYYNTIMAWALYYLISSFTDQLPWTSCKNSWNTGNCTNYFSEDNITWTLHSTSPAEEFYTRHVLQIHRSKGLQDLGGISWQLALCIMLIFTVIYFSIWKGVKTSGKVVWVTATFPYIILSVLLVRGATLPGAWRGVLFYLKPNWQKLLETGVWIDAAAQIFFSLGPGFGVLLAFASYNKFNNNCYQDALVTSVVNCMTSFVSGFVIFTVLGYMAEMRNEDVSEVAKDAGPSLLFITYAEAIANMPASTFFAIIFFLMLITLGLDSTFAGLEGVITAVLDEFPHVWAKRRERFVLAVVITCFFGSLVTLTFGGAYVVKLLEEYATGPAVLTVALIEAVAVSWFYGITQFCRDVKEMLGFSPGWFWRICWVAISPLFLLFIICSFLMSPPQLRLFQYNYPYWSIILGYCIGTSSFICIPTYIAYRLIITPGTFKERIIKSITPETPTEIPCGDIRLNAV

Consider `CN1Cc2c(ccc3c2OCO3)C2(CCC(C)(O)CC2)C1` (single isomer, unassigned) [Compound 295, 4',8-dimethyl-8,9-dihydro-7H-spiro [[1,3]dioxolo[4,5-h]isoquinoline-6,1'-cyclohexan]-4'-ol], for which the IC50 in experiment [1] (setting [3]) and in experiment [2] (setting [4]) was over 10000 nM throughout.
Turning to `CNCC1(c2ccc(Cl)c(Cl)c2)CCC1` [Compound 42, 1-(1-(3,4-dichlorophenyl)cyclobutyl)-N-methylmethanamine], the IC50 is 761 nM in experiment [1] (setting [3]) and 935 nM in experiment [2] (setting [4]).
As for `CN(C)CC1(c2ccc3ccccc3c2)CCC(C)(O)CC1` (stereo not drawn) [Compound 224, 4-((dimethylamino)methyl)-1-methyl-4-(naphthalen-2-yl)cyclohexanol], the IC50 in experiment [1] (setting [3]) amounted to 993 nM; in experiment [2] (setting [4]) it was 69 nM.
Take `CN(C)CC1(c2ccc(Cl)c(Cl)c2)CC=CCC1` (stereo not drawn) [Compound 72, 1-(1-(3,4-dichlorophenyl)cyclohex-3-enyl)-N,N-dimethylmethanamine]: the IC50 is 1.7 nM in experiment [1] (setting [3]) and 136 nM in experiment [2] (Human IC50 (nM) hSERT).
Take `NCC1(c2ccc3ccccc3c2)CCC(O)(CF)CC1` (stereo not drawn) [Compound 217, 4-(aminomethyl)-1-(fluoromethyl)-4-(naphthalen-2-yl)cyclohexanol]: the IC50 in experiment [1] (setting [3]) was found to be 1970 nM; in experiment [2] (setting [4]) it was 47 nM.
For the molecule `CN(C)CC1(c2ccc3ccccc3c2)CCC(F)(F)CC1` [Compound 252, 1-(4,4-difluoro-1-(naphthalen-2-yl)cyclohexyl)-N,N-dimethylmethanamine], the IC50 in experiment [1] (setting [3]) was 6 nM and 5 nM; in experiment [2] (setting [4]), 11 nM and 12 nM.
Regarding `NCC1(c2ccc(OC(F)(F)F)cc2)CCC(O)CC1` (stereo not drawn) [Compound 220, 4-(aminomethyl)-4-(4-(trifluoromethoxy)phenyl)cyclohexanol], the IC50 was over 10000 nM in experiment [1] (setting [3]) and 6150 nM in experiment [2] (setting [4]).
For `CC1(O)CCC(CN)(c2ccc3c(c2)OCO3)CC1` (stereo not drawn) [Compound 216, 4-(aminomethyl)-4-(benzo[d][1,3]dioxol-5-yl)-1-methylcyclohexanol] the same measures were over 10000 nM and over 10000 nM.
`CSc1ccc(C2(CN(C)C)CCCCC2)cc1` [Compound 52, N,N-dimethyl-1-(1-(4-(methylthio)phenyl)cyclohexyl)methanamine]: the IC50 in experiment [1] (Human IC50 (nM) hDAT) is 176 nM; in experiment [2] (setting [4]), 44 nM.
Turning to `NCC1(c2ccc(-c3cc(F)cc(F)c3)cc2)CCCCC1` [Compound 23, (1-(3',5'-difluorobiphenyl-4-yl)cyclohexyl)methanamine], the IC50 was 682 nM in experiment [1] (setting [3]) and 62 nM in experiment [2] (setting [4]).
As for `NCC1(c2ccc(Cl)c(Cl)c2)CCC(O)CC1` (stereo not drawn) [Compound 262, 4-(aminomethyl)-4-(3,4-dichlorophenyl)cyclohexanol], the IC50 is 4280 nM in experiment [1] (setting [3]) and over 10000 nM in experiment [2] (setting [5]).
As for `CSc1ccc(C2(CN)CCCCC2)cc1` [Compound 10, (1-(4-(methylthio)phenyl)cyclohexyl)methanamine], the IC50 stood at 2930 nM in experiment [1] (setting [3]) and 1910 nM in experiment [2] (setting [6]).
As for `NCC1(c2ccc(F)c3ccccc23)CCCCC1` [Compound 40, (1-(4-fluoronaphthalen-1-yl)cyclohexyl)methanamine], the IC50 stood at 2320 nM in experiment [1] (setting [3]) and 753 nM in experiment [2] (setting [4]).
On to `NCC1(c2ccc(Cl)c(Cl)c2)CCC(O)C1` (stereo not drawn) [trans 167, 3-(aminomethyl)-3-(3,4-dichlorophenyl)cyclopentanol], for which the IC50 in experiment [1] (setting [3]) was found to be 145 nM; in experiment [2] (setting [6]), 4910 nM.
As for `CNCC1(c2ccc(Cl)c(Cl)c2)CCC(C)(O)CC1` (stereo not drawn) [Compound 273, 4-(3,4-dichlorophenyl)-1-methyl-4-((methylamino)methyl)cyclohexanol], the results for the IC50 in experiment [1] (setting [3]) and in experiment [2] (setting [4]) were 528 nM and 830 nM, respectively.
For `CC(N(C)C)C1(c2ccc(OC(F)(F)F)cc2)CCCCC1` (single isomer, unassigned) [63 E1, N,N-dimethyl-1-(1-(4-(trifluoromethoxy)phenyl)cyclohexyl)ethanamine], in that order: 6540 nM and 194 nM.
Take `CC1CCCN(CC2(c3ccc(Cl)c(Cl)c3)CCCCC2)C1` (racemic) [Compound 114, 1-((1-(3,4-dichlorophenyl)cyclohexyl)methyl)-3-methylpiperidine]: the values for the IC50 in experiment [1] (setting [3]) and in experiment [2] (Human IC50 (nM) hSERT) were 16 nM and over 10000 nM, respectively.
For `NCC1(c2ccc3c(c2)OCO3)CCCCC1` [Compound 35, (1-(benzo[d][1,3]dioxol-5-yl)cyclohexyl)methanamine], the figures for the IC50 in experiment [1] (setting [3]) and in experiment [2] (setting [6]) were 4710 nM and over 10000 nM, respectively.
Regarding `CC1(O)CCCC(CN)(c2ccc(Cl)c(Cl)c2)C1` (single isomer, unassigned) [193 E1, 3-Aminomethyl-3-(3,4-dichloro-phenyl)-1-methyl-cyclohexanol], the results for the IC50 in experiment [1] (setting [3]) and in experiment [2] (setting [4]) were 266 nM and 416 nM, respectively.
For `CNC(C)C1(c2ccc3ccccc3c2)CCC(C)(O)CC1` (single isomer, unassigned) [231 E1, 1-methyl-4-(1-(methylamino)ethyl)-4-(naphthalen-2-yl)cyclohexanol], in that order: 460 nM and 1280 nM.
As to `NCC1(c2ccc3ccccc3c2)CCC(O)CC1` (stereo not drawn) [Compound 207, 4-(aminomethyl)-4-(naphthalen-2-yl)cyclohexanol], the IC50 in experiment [1] (setting [3]) turned out to be 1020 nM; in experiment [2] (setting [4]) it was 142 nM.
Regarding `CN(C)CC1(c2ccc(Cl)c(Cl)c2)CCC(F)CC1` (stereo not drawn) [Compound 261, 1-(1-(3,4-dichlorophenyl)-4-fluorocyclohexyl)-N,N-dimethylmethanamine], the concentration for half-maximal inhibition (IC50) in experiment [1] (Human IC50 (nM) hDAT) was found to be 7 nM; in experiment [2] (setting [5]), 30 nM.
`CNCC1(c2ccc3ccccc3c2)CCC(O)(CF)CC1` (stereo not drawn) [Compound 243, 1-(fluoromethyl)-4-((methylamino)methyl)-4-(naphthalen-2-yl)cyclohexanol]: the half-maximal inhibitory concentration (IC50) in experiment [1] (setting [3]) came out at 851 nM; in experiment [2] (setting [4]), 26 nM.
With `CNCC1(c2ccc3c(c2)OCO3)CCCCC1` [Compound 103, 1-(1-(benzo[d][1,3]dioxol-5-yl)cyclohexyl)-N-methylmethanamine], the half-maximal inhibitory concentration (IC50) is 7740 nM in experiment [1] (setting [3]) and 3540 nM in experiment [2] (setting [6]).
On to `COC1CCC(CN)(c2ccc(Cl)c(Cl)c2)CC1` (stereo not drawn) [Compound 257, (1-(3,4-dichlorophenyl)-4-methoxycyclohexyl)methanamine], for which the results for the IC50 in experiment [1] (setting [3]) and in experiment [2] (setting [4]) were 2000 nM and 2080 nM, respectively.
On to `COC1CCCC(CN)(c2ccc(Cl)c(Cl)c2)C1` (single isomer, unassigned) [Compound 194], for which the IC50 turned out to be 2370 nM in experiment [1] (setting [3]) and 330 nM in experiment [2] (setting [4]).
On to `CN(C)CC1(c2ccc(Cl)c(Cl)c2)CCC2(CC1)OCCO2` [Compound 271, 1-(8-(3,4-dichlorophenyl)-1,4-dioxaspiro[4.5]decan-8-yl)-N,N-dimethylmethanamine], for which the values for the IC50 in experiment [1] (setting [3]) and in experiment [2] (setting [5]) were 197 nM and 79 nM, respectively.
As for `CNC(C)C1(c2ccc(OC(F)(F)F)cc2)CCCCC1` (single isomer, unassigned) [64 E1, N-methyl-1-(1-(4-(trifluoromethoxy)phenyl)cyclohexyl)ethanamine], the half-maximal inhibitory concentration (IC50) in experiment [1] (Human IC50 (nM) hDAT) was over 10000 nM; in experiment [2] (setting [4]), 58 nM.
On to `NCC1(c2ccc(Cl)c(Cl)c2)CCC(O)C1` (stereo not drawn) [cis 167, 3-(aminomethyl)-3-(3,4-dichlorophenyl)cyclopentanol], for which the IC50 in experiment [1] (setting [3]) was 2220 nM; in experiment [2] (setting [6]), over 10000 nM.
For the molecule `COC1CCCC(CN)(c2ccc(Cl)c(Cl)c2)C1` (single isomer, unassigned) [195 E2], the IC50 in experiment [1] (setting [3]) was 5320 nM; in experiment [2] (setting [4]) it was 45 nM.
In the case of `CC1CCCN1CC1(c2ccc(Cl)c(Cl)c2)CCCCC1` (racemic) [Compound 115, 1-((1-(3,4-dichlorophenyl)cyclohexyl)methyl)-2-methylpyrrolidine], the concentration for half-maximal inhibition (IC50) was under 1 nM in experiment [1] (setting [3]) and over 10000 nM in experiment [2] (Human IC50 (nM) hSERT).
As to `CNCC1(c2ccc(Cl)c(Cl)c2)CCC(OC)CC1` (stereo not drawn) [Compound 259, 1-(1-(3,4-dichlorophenyl)-4-methoxycyclohexyl)-N-methylmethanamine], the IC50 in experiment [1] (setting [3]) amounted to 665 nM; in experiment [2] (setting [4]), 5890 nM.
Regarding `CNCC1(c2ccc3cc(F)ccc3c2)CCCCC1` [Compound 67, 1-(1-(6-fluoronaphthalen-2-yl)cyclohexyl)-N-methylmethanamine], the results for the IC50 in experiment [1] (setting [3]) and in experiment [2] (setting [6]) were 1760 nM and 230 nM, respectively.
Consider `CNC(=O)[C@]1(c2ccc3ccccc3c2)CCCC[C@H]1O` (relative stereo) [Compound 301, trans-2-hydroxy-N-methyl-1-(naphthalen-2-yl)cyclohexanecarboxamide], for which the IC50 in experiment [1] (setting [3]) was 8780 nM; in experiment [2] (setting [4]), over 10000 nM.
For `CN(C)CC1(c2ccc3c(c2)OCO3)CCC(C)(O)CC1` (stereo not drawn) [Compound 242, 4-(benzo[d][1,3]dioxol-5-yl)-4-((dimethylamino)methyl)-1-methylcyclohexanol] the same measures were over 10000 nM and 7660 nM.
For `CCC1(O)CCC(CN)(c2ccc(Cl)c(Cl)c2)CC1` (stereo not drawn) [Compound 281, 4-(aminomethyl)-4-(3,4-dichlorophenyl)-1-ethylcyclohexanol], the IC50 came out at 384 nM in experiment [1] (setting [3]) and 256 nM in experiment [2] (setting [4]).
Take `CN(C)CC1(c2ccc3ccccc3c2)CCC(F)CC1` (stereo not drawn) [Compound 235, 1-(4-fluoro-1-(naphthalen-2-yl)cyclohexyl)-N,N-dimethylmethanamine]: the 50% inhibitory concentration (IC50) in experiment [1] (setting [3]) worked out at 92 nM; in experiment [2] (setting [4]) it was 9 nM.
With `OC1Cc2ccccc2C1NCC1(c2ccc(Cl)c(Cl)c2)CCCCC1` (racemic) [Compound 113, 1-((1-(3,4-dichlorophenyl)cyclohexyl)methylamino)-2,3-dihydro-1H-inden-2-ol], the results for the IC50 in experiment [1] (setting [3]) and in experiment [2] (setting [4]) were 285 nM and 2570 nM, respectively.
Consider `CNC(C)C1(c2ccc3ccccc3c2)CCC(C)(O)CC1` (single isomer, unassigned) [231 E2, 1-methyl-4-(1-(methylamino)ethyl)-4-(naphthalen-2-yl)cyclohexanol], for which the half-maximal inhibitory concentration (IC50) in experiment [1] (setting [3]) worked out at 83 nM; in experiment [2] (setting [4]) it was 63 nM.

For the origin of these results see patent EP1976513B1 (priority 2006, dated 2007).
